Where a name gives a salt, the structure may show the parent alone.
target: T1, rat α2B (RNG gene) receptor (Rattus norvegicus, UniProt P19328); experiment: RSAT (Receptor Selection and Amplification Technology) assay, alpha 2B; format: cell-based; conditions: ratio of maximal effect to that of standard full agonist oxymetazoline
T1 construct: expressed in transfected cells; host or cells: NIH-3T3 cells, calcium phosphate cotransfection
T1 sequence (P19328 1-453): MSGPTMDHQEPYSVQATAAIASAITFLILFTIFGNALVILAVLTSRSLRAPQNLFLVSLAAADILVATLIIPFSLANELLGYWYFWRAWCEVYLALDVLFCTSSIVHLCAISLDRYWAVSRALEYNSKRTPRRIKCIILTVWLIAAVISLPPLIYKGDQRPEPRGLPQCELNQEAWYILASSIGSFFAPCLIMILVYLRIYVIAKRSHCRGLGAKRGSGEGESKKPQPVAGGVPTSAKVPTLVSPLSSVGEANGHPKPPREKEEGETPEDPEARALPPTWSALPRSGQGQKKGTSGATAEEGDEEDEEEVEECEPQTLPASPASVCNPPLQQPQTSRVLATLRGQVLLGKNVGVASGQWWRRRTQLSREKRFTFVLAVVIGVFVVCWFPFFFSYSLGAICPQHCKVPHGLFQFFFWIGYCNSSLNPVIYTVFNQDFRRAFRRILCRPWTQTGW
Description: This preferential activity can be determined in a variety of functional assays such as Cyclic AMP Production, Shimizu et al, J. Neurochem. […] In the study below, the RSAT assay on cells that have been transiently transfected with the human α2A (c10 gene), rat α2B (RNG gene) and human α2C (c4 gene) receptors was used.
The assay measures a receptor-mediated loss of contact inhibition that results in selective proliferation of receptor-containing cells in a mixed population of confluent cells. The increase in cell number is assessed with an appropriate transfected marker gene such as b-galactosidase, the activity of which can be easily measured in a 96-well format. Receptors that activate the G protein, Gq, elicit this response. Alpha2 receptors, which normally couple to Gi, activate the RSAT response when coexpressed with a hybrid Gq protein that has a Gi receptor recognition domain, called Gq/i5^2.
NIH-3T3 cells are plated at a density of 2×10^6 cells in 15 cm dishes and maintained in Dulbecco's modified Eagle's medium supplemented with 10% calf serum. One day later, cells are cotransfected by calcium phosphate precipitation with mammalian expression plasmids encoding p-SV-b-galactosidase (5-10 mg), receptor (1-2 mg) and G protein (1-2 mg). 40 mg salmon sperm DNA may also be included in the transfection mixture. Fresh media is added on the following day and 1-2 days later, cells are harvested and frozen in 50 assay aliquots. Cells are thawed and 100 ml added to […] aliquots of various concentrations of drugs in triplicate in 96-well dishes. Incubations continue 72-96 hr at 37°. After washing with phosphate-buffered saline, b-galactosidase enzyme activity is determined by adding 200 ml of the chromogenic substrate (consisting of 3.5 mM o-nitrophenyl-b-D-galactopyranoside and 0.5% nonidet P-40 in phosphate buffered saline), incubating overnight at 30° and measuring optical density at 420 nm. The absorbence is a measure of enzyme activity, which depends on cell number and reflects a receptor-mediated cell proliferation. The EC50 and maximal effect of each drug at each alpha2 receptor is determined. The efficacy or intrinsic activity is calculated as a ratio of the maximal effect of the drug to the maximal effect of a standard full agonist for each receptor subtype.

SMILES | Intrinsic Activity Relative to Oxymetazoline, Alpha 2B
Cc1ccsc1Cc1cnc[nH]1 [4(5)-(3-methyl-thiophen-2-ylmethyl)-1H-imidazole, reference compound] | 1.4
O=C1c2ccccc2OCC1Cc1c[nH]cn1 (stereo not shown) [Example B-2b, 3-(1H-imidazol-4(5)-ylmethyl)chroman-4-one] | 0.77
c1coc(Cc2c[nH]cn2)c1 [Example C-5, 4(5)-furan-2-ylmethyl-1H-imidazole] | 1.1
O=C1c2cnccc2CCC1Cc1c[nH]cn1 (stereo not shown) [Example P-1, 7-(1H-imidazol-4(5)-ylmethyl)-6,7-dihydro-5H-isoquinoline-8-one, fumarate] | 0.4
c1cc2c(cn1)CC(Cc1c[nH]cn1)CC2 (stereo not shown) [Example P-2, 7-(1H-imidazol-4(5)-ylmethyl)-5,6,7,8-tetrahydro-isoquinoline, fumarate] | 0.4
O=C1/C(=C\c2c[nH]cn2)CCc2ncccc21 [Example Q-1, (Z)-6-(1H-imidazol-4(5)-ylmethylene)-7,8-dihydro-6H-quinolin-5-one] | 0.75
O=C1/C(=C/c2c[nH]cn2)CCc2ncccc21 [Example Q-2, (E)-6-(1H-imidazol-4(5)-ylmethylene)-7,8-dihydro-6H-quinolin-5-one] | 0.87
O=C1c2cccnc2CCC1Cc1c[nH]cn1 (stereo not shown) [Example Q-3, 6-(1H-imidazol-4(5)-ylmethyl)-7,8-dihydro-6H-quinolin-5-one] | 0.9
c1cnc2c(c1)CC(Cc1c[nH]cn1)CC2 (stereo not shown) [Example Q-4, 6-(1H-imidazol-4(5)-ylmethyl)-5,6,7,8-tetrahydro-quinoline, dihydrochloride] | 0.8
O=C1C(Cc2c[nH]cn2)CCC2NCCCC12 (stereo not shown) [Example Q-5, 6-(1H-imidazol-4(5)-yl-methyl)-octahydroquinolin-5-one] | 1.0
O=C1/C(=C/c2c[nH]cn2)CCc2nccnc21 [Example R-1, (E)-6-(1H-imidazol-4(5)-ylmethylene)-7,8-dihydro-6H-quinoxalin-5-one] | 0.8
O=C1c2ccncc2CCC1Cc1c[nH]cn1 (stereo not shown) [Example R-2, 6-(1H-imidazol-4(5)-ylmethyl)-7,8-dihydro-6H-isoquinolin-5-one, dihydrochloride] | 0.6
c1cc2c(cn1)CCC(Cc1c[nH]cn1)C2 (stereo not shown) [Example R-3, 6-(1H-imidazol-4(5)-ylmethyl)-5,6,7,8-tetrahydro-isoquinoline, fumarate] | 0.6
Cc1c(N=C2NCCN2)ccc2c1NC(=O)CO2 [F, 6-(imidazolidin-2-ylideneamino)-5-methyl-4H-benzo[1,4]oxazin-3-one] | 0.9
CC(c1c[nH]cn1)c1ccco1 (stereo not shown) [L, 4(5)-(1-furan-2-ylethyl)-1H-imidazole] | 0.9

Continued, values first:

Intrinsic Activity Relative to Oxymetazoline, Alpha 2B | SMILES
0.67 | Cl.c1nc(CC2CC3CCCC3C2)c[nH]1 (stereo not shown) [Example O, 4(5)-octahydro pentalen-2-ylmethyl-1H-imidazole, hydrochloride]
.6 | C[C@@]12CCCCC1=C[C@@H](Cc1c[nH]cn1)CC2 [Example S, 4(5)-(4a-methyl-2,3,4,4a,5,6,7,8-octahydro-naphthalen-2-ylmethyl)-1H-imidazole, but-2-enedioic acid salt]
0.8 | CC1=CC(Cc2c[nH]cn2)CCC1 (stereo not shown) [Example T-1, 4(5)-(3-methyl-cyclohex-2-enylmethyl)-1H-imidazole, but-2-enedioic acid salt]
0.7 | CC1=CC(Cc2c[nH]cn2)CC(C)(C)C1 (stereo not shown) [Example T-2, 4(5)-(3,5,5-trimethyl-cyclohex-2-enylmethyl)-1H-imidazole, but-2-endioic acid salt]
1.08 | CC1=CC(Cc2c[nH]cn2)CC1 (stereo not shown) [Example T-3, 4(5)-(3-methylcyclopent-2-enylmethyl)-1H-imidazole, but-2-enedioic acid salt]
0.6 | C1=CC(Cc2c[nH]cn2)CCC1 (stereo not shown) [Example U-1, 4(5)-cyclohex-2-enylmethyl-1H-imidazole, but-2-enedioic acid salt]
0.6 | CC1C=CC(Cc2c[nH]cn2)CC1 (stereo not shown) [Example U-2, 4(5)-(4-methyl-cyclohex-2-enylmethyl)-1H-imidazole, but-2-enedioic acid salt]
0.55 | CC1=C(C)CC(Cc2c[nH]cn2)CC1 (stereo not shown) [Example W-1, 4(5)-(3,4-Dimethyl-cyclohex-3-enylmethyl)-1H-imidazole, but-2-enedioic acid salt]
0.6 | C1=CCC(Cc2c[nH]cn2)CC1 (stereo not shown) [Example W-2, 4(5)-Cyclohex-3-enylmethyl-1H-imidazole, but-2-enedioic acid salt]
0.8 | CC1=CCC(Cc2c[nH]cn2)CC1 (stereo not shown) [Example X-1, 4(5)-(4-Methyl-cyclohex-3-enylmethyl)-1H-imidazole, but-2-enedioic acid salt]
0.56 | CCC1=CCC(Cc2c[nH]cn2)CC1 (stereo not shown) [Example X-2, 4(5)-(4-Ethyl-cyclohex-3-enylmethyl)-1H-imidazole, but-2-enedioic acid salt]
0.87 | CCCCCC1=CCC(Cc2c[nH]cn2)CC1 (stereo not shown) [Example X-3, 4(5)-(4-Pentyl-cyclohex-3-enylmethyl)-1H-imidazole, but-2-enedioic acid salt]
0.87 | Cc1ccc(N=C2NCCN2)c2c1NCCO2.Cl [G, imidazolin-2-ylidene-(5-methyl-3,4-dihydro-2H-benzo[1,4]oxazin-8-yl) amine, hydrogen chloride salt]
0.93 | c1ccc(Sc2c[nH]cn2)cc1 [H, 4(5)-phenylsulfanyl-1H-imidazole]
0.5 | C1=NC(CC2CCc3ccccc3C2)CN1 (stereo not shown) [I, 4(5)-(1,2,3,4-tetrahydronaphthalen-2-ylmethyl)-4,5-dihydro-1H-imidazole, methane sulfonic acid salt]
0.4 | O=C1CCCCC1Cc1c[nH]cn1 (stereo not shown) [V, 2-(1H-Imidazole-4(5)-ylmethyl)-cyclohexanone, but-2-enedioic acid salt]

tested on: conscious cynomolgus monkeys; experiment: Cardiovascular side effects (blood pressure, heart rate) after i.v. administration; format: in vivo, cynomolgus monkey; conditions: i.v. 50 μg/kg, up to 6 hours; + with * = increase from base levels
Description: Cardiovascular measurements were made in a different group of monkeys using a BP 100S automated sphygmomanometer (Nippon Colin,. Japan).

SMILES | Maximum % Decrease From Pretreatment Levels, Heart Rate [%] | Maximum % Decrease From Pretreatment Levels, Mean Arterial Blood Pressure [%]
Cc1ccsc1Cc1cnc[nH]1 [4(5)-(3-methyl-thiophen-2-ylmethyl)-1H-imidazole, reference compound] | 23 ± 4 | 9 ± 3

same assay, conditions: i.v. 167 μg/kg, up to 6 hours; + with * = increase from base levels

SMILES | Maximum % Decrease From Pretreatment Levels, Heart Rate [%] | Maximum % Decrease From Pretreatment Levels, Mean Arterial Blood Pressure [%]
Cc1ccsc1Cc1cnc[nH]1 [4(5)-(3-methyl-thiophen-2-ylmethyl)-1H-imidazole, reference compound] | 32 ± 8 | 8 ± 6

same assay, conditions: i.v. 500 μg/kg, up to 6 hours; + with * = increase from base levels

SMILES | Maximum % Decrease From Pretreatment Levels, Heart Rate [%] | Maximum % Decrease From Pretreatment Levels, Mean Arterial Blood Pressure [%]
O=C1c2ccccc2OCC1Cc1c[nH]cn1 (stereo not shown) [Example B-2b, 3-(1H-imidazol-4(5)-ylmethyl)chroman-4-one] | 6.4 ± 3.6 | 5.7 ± 1.4
c1coc(Cc2c[nH]cn2)c1 [Example C-5, 4(5)-furan-2-ylmethyl-1H-imidazole] | 7.1 ± 3.9 | 3.9 ± 2.8

same assay, conditions: intravenous administration, monkeys

SMILES | effect on heart rate (in words)
Cc1ccsc1Cc1cnc[nH]1 [4(5)-(3-methyl-thiophen-2-ylmethyl)-1H-imidazole, reference compound] | weak effect on heart rate

— patent publication US6841684B2, “Imidiazoles having reduced side effects” (Allergan, Inc., priority 1997, dated 2005)
